Values of other authors as cited in publication PMC9851200, “Multiparameter phenotypic screening for endogenous TFEB and TFE3 translocation identifies novel chemical series modulating lysosome function” (Autophagy, 2022).

How the values were obtained:
Parameters in all cases: method as in original PKIS2 published data
[1] = target: T1, kinases (KINOMEscan panel) (Homo sapiens, UniProt P29322); settings: kinase EPHA8; Published KINOMEscan; ref original PKIS2 published data; cited from earlier work
T1 sequence (P29322 28-1005): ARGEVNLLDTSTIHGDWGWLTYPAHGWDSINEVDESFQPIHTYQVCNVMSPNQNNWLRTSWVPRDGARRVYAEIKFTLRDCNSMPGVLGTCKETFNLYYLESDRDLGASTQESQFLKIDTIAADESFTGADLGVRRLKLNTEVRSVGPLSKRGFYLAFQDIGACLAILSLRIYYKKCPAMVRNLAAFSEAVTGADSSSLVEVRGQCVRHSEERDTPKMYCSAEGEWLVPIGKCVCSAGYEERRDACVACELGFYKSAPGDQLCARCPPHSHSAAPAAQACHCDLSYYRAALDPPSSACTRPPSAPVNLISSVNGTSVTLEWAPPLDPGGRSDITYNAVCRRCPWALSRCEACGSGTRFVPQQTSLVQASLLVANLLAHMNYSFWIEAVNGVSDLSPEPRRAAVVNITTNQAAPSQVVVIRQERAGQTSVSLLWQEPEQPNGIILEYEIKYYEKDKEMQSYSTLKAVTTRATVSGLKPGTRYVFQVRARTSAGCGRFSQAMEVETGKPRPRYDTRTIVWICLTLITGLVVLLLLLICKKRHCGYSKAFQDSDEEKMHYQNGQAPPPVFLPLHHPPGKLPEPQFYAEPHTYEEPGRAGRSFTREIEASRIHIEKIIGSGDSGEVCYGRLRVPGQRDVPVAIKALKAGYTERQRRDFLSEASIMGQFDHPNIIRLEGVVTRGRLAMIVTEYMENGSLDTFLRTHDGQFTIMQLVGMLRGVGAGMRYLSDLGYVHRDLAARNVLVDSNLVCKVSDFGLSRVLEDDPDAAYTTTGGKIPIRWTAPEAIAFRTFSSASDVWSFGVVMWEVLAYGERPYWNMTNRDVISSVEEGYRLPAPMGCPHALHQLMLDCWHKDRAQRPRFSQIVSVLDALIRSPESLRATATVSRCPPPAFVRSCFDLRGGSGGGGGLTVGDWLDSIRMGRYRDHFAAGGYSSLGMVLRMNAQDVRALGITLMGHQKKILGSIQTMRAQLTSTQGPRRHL

[2] = target: kinases (KINOMEscan panel) (Homo sapiens, UniProt P68400); settings: CSNK2A1; Published KINOMEscan; ref original PKIS2 published data; cited from earlier work
kinases (KINOMEscan panel) (Homo sapiens, UniProt P68400), sequence (P68400 whole entry): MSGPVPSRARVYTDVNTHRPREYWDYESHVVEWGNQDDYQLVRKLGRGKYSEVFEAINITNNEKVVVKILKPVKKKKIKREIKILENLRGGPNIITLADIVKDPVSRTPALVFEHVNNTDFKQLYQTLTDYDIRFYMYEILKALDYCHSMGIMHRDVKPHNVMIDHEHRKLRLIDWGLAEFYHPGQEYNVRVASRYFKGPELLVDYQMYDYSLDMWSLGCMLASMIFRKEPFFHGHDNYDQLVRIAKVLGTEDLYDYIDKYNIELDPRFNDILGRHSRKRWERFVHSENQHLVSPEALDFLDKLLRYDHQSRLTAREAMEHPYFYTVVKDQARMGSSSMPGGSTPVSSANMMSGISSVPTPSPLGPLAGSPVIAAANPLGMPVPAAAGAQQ

[3] = target: T2, kinases (KINOMEscan panel) (Homo sapiens, UniProt Q8IVH8); settings: Published KINOMEscan; ref original PKIS2 published data; cited from earlier work
T2 sequence (Q8IVH8 1-894): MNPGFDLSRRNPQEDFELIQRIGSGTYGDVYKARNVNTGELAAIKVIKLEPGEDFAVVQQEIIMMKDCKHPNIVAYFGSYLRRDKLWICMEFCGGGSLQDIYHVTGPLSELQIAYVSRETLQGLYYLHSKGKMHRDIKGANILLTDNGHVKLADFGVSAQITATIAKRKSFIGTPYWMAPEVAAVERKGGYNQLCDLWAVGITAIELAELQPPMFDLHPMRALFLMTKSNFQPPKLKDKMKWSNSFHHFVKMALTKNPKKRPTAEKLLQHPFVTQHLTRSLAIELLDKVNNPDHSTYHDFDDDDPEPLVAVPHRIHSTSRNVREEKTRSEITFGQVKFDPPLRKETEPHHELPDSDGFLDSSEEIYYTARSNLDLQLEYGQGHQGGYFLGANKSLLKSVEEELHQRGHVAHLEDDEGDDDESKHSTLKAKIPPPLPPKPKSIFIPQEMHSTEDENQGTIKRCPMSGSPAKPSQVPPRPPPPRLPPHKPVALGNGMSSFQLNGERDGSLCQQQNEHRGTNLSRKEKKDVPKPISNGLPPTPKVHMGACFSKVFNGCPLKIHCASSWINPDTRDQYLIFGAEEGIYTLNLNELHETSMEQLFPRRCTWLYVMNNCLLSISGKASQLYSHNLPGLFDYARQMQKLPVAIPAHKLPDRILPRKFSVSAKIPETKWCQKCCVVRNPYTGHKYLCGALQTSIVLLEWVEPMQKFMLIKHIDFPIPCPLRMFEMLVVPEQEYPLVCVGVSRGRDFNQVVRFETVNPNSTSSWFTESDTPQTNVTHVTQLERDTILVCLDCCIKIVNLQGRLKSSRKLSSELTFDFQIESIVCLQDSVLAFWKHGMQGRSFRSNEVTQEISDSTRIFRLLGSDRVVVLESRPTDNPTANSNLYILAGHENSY

[4] = target: T3, kinases (KINOMEscan panel) (Homo sapiens, UniProt Q9UQ88); settings: Published KINOMEscan; ref original PKIS2 published data; cited from earlier work
T3 sequence (Q9UQ88 1-783): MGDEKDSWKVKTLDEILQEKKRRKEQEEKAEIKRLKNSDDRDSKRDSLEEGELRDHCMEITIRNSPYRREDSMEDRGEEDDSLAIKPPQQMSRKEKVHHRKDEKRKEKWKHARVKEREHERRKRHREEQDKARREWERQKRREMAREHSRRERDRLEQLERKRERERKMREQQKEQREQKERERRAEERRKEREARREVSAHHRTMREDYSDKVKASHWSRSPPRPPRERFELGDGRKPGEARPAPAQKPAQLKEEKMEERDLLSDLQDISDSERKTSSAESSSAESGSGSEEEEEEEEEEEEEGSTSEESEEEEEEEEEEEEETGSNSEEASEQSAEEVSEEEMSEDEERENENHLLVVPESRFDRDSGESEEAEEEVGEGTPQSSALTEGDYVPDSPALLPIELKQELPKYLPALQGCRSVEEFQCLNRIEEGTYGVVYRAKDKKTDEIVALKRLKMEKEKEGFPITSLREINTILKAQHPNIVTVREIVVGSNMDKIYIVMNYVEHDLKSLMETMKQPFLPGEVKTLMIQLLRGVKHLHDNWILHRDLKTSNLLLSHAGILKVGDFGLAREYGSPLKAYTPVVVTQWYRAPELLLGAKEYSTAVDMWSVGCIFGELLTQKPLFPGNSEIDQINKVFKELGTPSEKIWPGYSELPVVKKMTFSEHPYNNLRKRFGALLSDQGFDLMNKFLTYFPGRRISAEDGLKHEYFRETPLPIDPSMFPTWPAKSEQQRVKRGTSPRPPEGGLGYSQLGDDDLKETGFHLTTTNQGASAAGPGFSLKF

SMILES: Cc1cccc(-c2nc(Nc3ccncc3)c3ccccc3n2)n1 [NK215]
- KINOMEscan EPHA8 [1]: 7
- KINOMEscan CSNK2A1 [2]: 0
- KINOMEscan MAP4K3 [3]: 0
- KINOMEscan CDK11A [4]: 0
